Measurements: ChEMBL document CHEMBL3885861, “Open TG-GATES”

Species on record: Rattus norvegicus
Experiment: Open TG-GATES - Regimen: Single
Assay type: toxicity, organism-based, Sprague-Dawley
Set-up: regimen Single, gender Male, age 6 weeks
Details: in vivo, po, 50 mg/kg, route gavage, dose level High; for APTT / Bas / Eos / Fbg / Hb / Ht / Lym / MCH / MCHC / MCV / Mono / Neu / PT / Plat / RBC / Ret / WBC: tissue Blood; for LIVER: tissue Liver; for A/G / ALP / ALT / AST / BUN / CRE / Ca / Cl / DBIL / GLC / IP / K / LDH / Na / PL / RALB / TBIL / TC / TG / TP / gamma-GTP: tissue Plasma

C=C(C)[C@H]1Cc2c(ccc3c2O[C@@H]2COc4cc(OC)c(OC)cc4[C@@H]2C3=O)O1 [ROTENONE]
TERMINAL_BW (3 h): 195.9 g | APTT (3 h): 15.9 s | Bas (3 h): 0% | Eos (3 h): 0.8% | Fbg (3 h): 204.8 mg/dL | Hb (3 h): 13.2 g/dL | Ht (3 h): 40.1% | Lym (3 h): 73.4% | MCH (3 h): 20.7 pg | MCHC (3 h): 32.8% | MCV (3 h): 63.1 fL | Mono (3 h): 9.2% | Neu (3 h): 17.4% | PT (3 h): 12.6 s | Plat (3 h): 124.2 x10_4/uL | RBC (3 h): 636.2 x10_4/ul | Ret (3 h): 8.8% | WBC (3 h): 89.8 x10_2/uL | LIVER (3 h): 8.5 g | A/G (3 h): 2.3 | ALP (3 h): 1894.6 IU/L | ALT (3 h): 39 IU/L | AST (3 h): 79.4 IU/L | BUN (3 h): 13.8 mg/dL | CRE (3 h): 0.4 mg/dL | Ca (3 h): 11.1 mg/dL | Cl (3 h): 103.6 meq/L | DBIL (3 h): 0.008 mg/dL | GLC (3 h): 182.2 mg/dL | IP (3 h): 8.9 mg/dL | K (3 h): 3.9 meq/L | LDH (3 h): 92.6 IU/L | Na (3 h): 140.6 meq/L | PL (3 h): 123.2 mg/dL | RALB (3 h): 3.7 g/dL | TBIL (3 h): 0.036 mg/dL | TC (3 h): 77.4 mg/dL | TG (3 h): 49.4 mg/dL | TP (3 h): 5.3 g/dL | gamma-GTP (3 h): 1 IU/L | TERMINAL_BW (6 h): 197.3 g | APTT (6 h): 16.8 s | Bas (6 h): 0% | Eos (6 h): 0% | Fbg (6 h): 213.4 mg/dL | Hb (6 h): 13.3 g/dL | Ht (6 h): 40.7% | Lym (6 h): 77.8% | MCH (6 h): 20.8 pg | MCHC (6 h): 32.7% | MCV (6 h): 63.7 fL | Mono (6 h): 6.6% | Neu (6 h): 15% | PT (6 h): 12.6 s | Plat (6 h): 136.6 x10_4/uL | RBC (6 h): 638.2 x10_4/ul | Ret (6 h): 9.1% | WBC (6 h): 84.6 x10_2/uL | LIVER (6 h): 8.2 g | A/G (6 h): 2.3 | ALP (6 h): 1068.4 IU/L | ALT (6 h): 41.2 IU/L | AST (6 h): 75 IU/L | BUN (6 h): 11.4 mg/dL | CRE (6 h): 0.4 mg/dL | Ca (6 h): 11.3 mg/dL | Cl (6 h): 103.8 meq/L | DBIL (6 h): 0.01 mg/dL | GLC (6 h): 185.8 mg/dL | IP (6 h): 9.9 mg/dL | K (6 h): 3.9 meq/L | LDH (6 h): 96 IU/L | Na (6 h): 140.6 meq/L | PL (6 h): 145.2 mg/dL | RALB (6 h): 3.7 g/dL | TBIL (6 h): 0.044 mg/dL | TC (6 h): 84.8 mg/dL | TG (6 h): 45.6 mg/dL | TP (6 h): 5.4 g/dL | gamma-GTP (6 h): 0.2 IU/L | TERMINAL_BW (9 h): 196.2 g | APTT (9 h): 16.7 s | Bas (9 h): 0% | Eos (9 h): 0.6% | Fbg (9 h): 221.4 mg/dL | Hb (9 h): 13 g/dL | Ht (9 h): 39.5% | Lym (9 h): 82.2% | MCH (9 h): 21.4 pg | MCHC (9 h): 33% | MCV (9 h): 64.8 fL | Mono (9 h): 4.6% | Neu (9 h): 12.6% | PT (9 h): 12.6 s | Plat (9 h): 137 x10_4/uL | RBC (9 h): 610 x10_4/ul | Ret (9 h): 8.7% | WBC (9 h): 86.6 x10_2/uL | LIVER (9 h): 8 g | A/G (9 h): 2.3 | ALP (9 h): 1128.2 IU/L | ALT (9 h): 30.6 IU/L | AST (9 h): 66.8 IU/L | BUN (9 h): 11.8 mg/dL | CRE (9 h): 0.4 mg/dL | Ca (9 h): 11 mg/dL | Cl (9 h): 104.2 meq/L | DBIL (9 h): 0.01 mg/dL | GLC (9 h): 171.2 mg/dL | IP (9 h): 10.2 mg/dL | K (9 h): 4.1 meq/L | LDH (9 h): 105 IU/L | Na (9 h): 139.6 meq/L | PL (9 h): 135.8 mg/dL | RALB (9 h): 3.8 g/dL | TBIL (9 h): 0.048 mg/dL | TC (9 h): 87.6 mg/dL | TG (9 h): 34.8 mg/dL | TP (9 h): 5.4 g/dL | gamma-GTP (9 h): 1 IU/L | TERMINAL_BW (24 h): 202.8 g | APTT (24 h): 16.4 s | Bas (24 h): 0% | Eos (24 h): 0.8% | Fbg (24 h): 198.6 mg/dL | Hb (24 h): 13.3 g/dL | Ht (24 h): 40.7% | Lym (24 h): 83.8% | MCH (24 h): 20.6 pg | MCHC (24 h): 32.7% | MCV (24 h): 63 fL | Mono (24 h): 4.6% | Neu (24 h): 10.8% | PT (24 h): 12.4 s | Plat (24 h): 128.6 x10_4/uL | RBC (24 h): 648.4 x10_4/ul | Ret (24 h): 7.3% | WBC (24 h): 67.6 x10_2/uL | LIVER (24 h): 8.4 g | A/G (24 h): 2.5 | ALP (24 h): 1301.4 IU/L | ALT (24 h): 25.8 IU/L | AST (24 h): 61.4 IU/L | BUN (24 h): 13.6 mg/dL | CRE (24 h): 0.4 mg/dL | Ca (24 h): 11.8 mg/dL | Cl (24 h): 104 meq/L | DBIL (24 h): 0.01 mg/dL | GLC (24 h): 185.8 mg/dL | IP (24 h): 8.3 mg/dL | K (24 h): 4.1 meq/L | LDH (24 h): 66.4 IU/L | Na (24 h): 140.2 meq/L | PL (24 h): 128 mg/dL | RALB (24 h): 4 g/dL | TBIL (24 h): 0.042 mg/dL | TC (24 h): 74.2 mg/dL | TG (24 h): 46.4 mg/dL | TP (24 h): 5.5 g/dL | gamma-GTP (24 h): 0.6 IU/L
